The results in this text go back to patent publication US10577362B2, “Substituted 2, 4-diamino-quinoline derivatives for use in the treatment of proliferative diseases” (GENOSCIENCE PHARMA, priority 2016, dated 2020).

Where a name gives a salt, the structure may show the parent alone.

What all share (assay type): cell-based, human
The test system of assay [1] is HepG2 (hepatocellular carcinoma) cell line. Put plainly: CellTiter-Glo luminescent cell viability assay, HepG2. Conditions: Homo sapiens; for viability at 4 µM / viability at 10 µM: HepG2, HepG, 72 h; for viability at 4 µM: compound at 4 μM; for viability at 10 µM: compound at 10 μM; for EC50: HepG2 cell line, 72 h incubation, CellTiter-Glo, read-out: EC50, growth inhibition of HepG2. On the procedure:
(§1) All cell lines were maintained in medium containing 1% penicillin-streptomycin (Dutscher, P06-07100) and 10% Fetal Bovine Serum (Hyclone Dutscher, RZK35922) cultured at 37° C. with 5% CO2. HepG2 (hepatocellular carcinoma), cell line was cultured in Dulbecco's modified Eagle's medium low glucose (Gibco, 21885025), Huh7 (hepatocellular carcinoma), HCT-116 (colorectal carcinoma), PANC-1 (prancreatic carcinoma) and A375 (malignant melanoma) cell lines were cultured in Dulbecco's modified Eagle's medium (Dutscher, L0103). MOLM-14 (acute myeloid leukemia) cell line was maintained in MEM alpha medium (Gibco, 22561-021). 786-0 (renal adenocarcinoma) cell lines were maintained in RPMI 1640 medium (Dutscher, L0498).
(§2) Cell viability was measured using the CellTiter-Glo® luminescent cell viability assay as described by the manufacturer (Promega, Ref G7571) using an Infinite F200Pro luminometer (Tecan). Briefly, for adherent cells, cells were plated onto 96-well plates (white with clear bottom) in 90 μL of media per well and were allowed to grow overnight before the assay. For cells growing in suspension, cells were plated onto 96-well plates 1 h before the assay.
(§3) Compounds were resuspended in H2O or DMSO and added at different concentrations to each well, and cell cultures were incubated for 72 h. Each diluent (H2O or DMSO) were used as a control, and all compounds were tested in a constant percentage of H2O or DMSO. On the day of the reading, plates are equilibrated 30 min at room temperature before the addition of 100 μL of CellTiter-Glo® and luminescence was measured using an Infinite F200Pro (Tecan). % cell viability were expressed as a percentage of the signal obtained for cell cultures treated with diluent. EC50 values were determined as the dose of compound required to reduce luminescent values to 50% of the signal obtained for cell cultures treated with diluent. The experimental data were analyzed using a computer program, Graphpad Prism v5 (GraphPad Software, Inc. La Jolla, Calif.). All points were at least done in duplicate.

Assay [2] deals with A375 (malignant melanoma) cell line. Put plainly: CellTiter-Glo luminescent cell viability assay, A375. The settings on record: Homo sapiens, A-375; for viability at 4 µM: A375, compound at 4 μM; for viability at 4 µM / viability at 10 µM: 72 h; for viability at 10 µM: A375, compound at 10 μM; for EC50: A375 cell line, 72 h incubation, CellTiter-Glo, read-out: EC50, growth inhibition of A375. The protocol: as §1, §2, §3

The subject of assay [3] is MOLM-14 (acute myeloid leukemia) cell line. Put plainly: CellTiter-Glo luminescent cell viability assay, MOLM-14. Conditions: Homo sapiens; for viability at 4 µM: MOLM-14, compound at 4 μM; for viability at 4 µM / viability at 10 µM: 72 h; for viability at 10 µM: MOLM-14, compound at 10 μM; for EC50: MOLM-14 cell line, 72 h incubation, CellTiter-Glo, read-out: EC50, growth inhibition of MOLM-14. The protocol: as §1, §2, §3

The test system of assay [4] is 786-O (renal adenocarcinoma) cell line. Kind of assay: CellTiter-Glo luminescent cell viability assay, 786-O. Conditions: Homo sapiens, 786-0; for EC50: 786-O cell line, 72 h incubation, CellTiter-Glo, read-out: EC50, growth inhibition of 786-O; for viability at 4 µM / viability at 10 µM: 786-O, 72 h; for viability at 4 µM: compound at 4 μM; for viability at 10 µM: compound at 10 μM. On the procedure: as §1, §2, §3

Assay [5] concerns HCT-116 (colorectal carcinoma) cell line. Kind of assay: CellTiter-Glo luminescent cell viability assay, HCT-116. Conditions: Homo sapiens; for viability at 4 µM: HCT-116, compound at 4 μM; for viability at 4 µM / viability at 10 µM: 72 h; for viability at 10 µM: HCT-116, compound at 10 μM; for EC50: HCT-116 cell line, 72 h incubation, CellTiter-Glo, read-out: EC50, growth inhibition of HCT-116. On the procedure:
as §1, §2, §3

For assay [6], the system named is Huh7 (hepatocellular carcinoma) cell line. Put plainly: CellTiter-Glo luminescent cell viability assay, Huh7. Conditions: Homo sapiens, Huh-7; for viability at 4 µM: Huh7, compound at 4 μM; for viability at 4 µM / viability at 10 µM: 72 h; for viability at 10 µM: Huh7, compound at 10 μM; for EC50: Huh7 cell line, 72 h incubation, CellTiter-Glo, read-out: EC50, growth inhibition of Huh7. The protocol:
as §1, §2, §3

Consider `Cn1ncnc1Nc1nc2ccccc2c(N2CCC(NC(C)(C)C)CC2)c1C#N` [Compound 3270CN, 2-[(1-methyl-1H-1,2,4-triazol-5-yl)amino]-3-cyano-4-[4-(tert-butylamino)piperidin-1-yl]quinoline], for which the viability at 4 µM in assay [1] stood at 37.5%; in assay [2], 49.2%; in assay [3] it was 33.2%; in assay [4] it was 52.6%; in assay [5] it was 47.4%; in assay [6], 79.6%. Besides, the viability at 10 µM in assay [1] is 24.1%; in assay [2], 31%; in assay [3], 1%; in assay [4], 34.7%; in assay [5], 6.3%; in assay [6], 32.3%. For the same molecule, the EC50 in assay [1] lay in the range of 0.5 to 5 µM; in assay [2], 0.5 to 5 µM; in assay [3] it was 0.5 to 5 µM; in assay [4] it was 5 to 10 µM; in assay [6], 5 to 10 µM.
As to `Cc1cc(OC2CCN(c3c(C#N)c(NCc4ccc(Cl)cc4)nc4ccccc34)CC2)no1` [Compound 2978CN, 2-(4-chlorobenzylamino)-3-cyano-4-{4-[(5-methylisoxazol-3-yl)oxy]piperidin-1-yl}quinoline], the viability at 4 µM in assay [1] came to 94.5%; in assay [2] it was 93.1%; in assay [3], 115%; in assay [4] it was 96.9%; in assay [5], 88.2%; in assay [6], 87%. The viability at 10 µM in assay [1] came to 78.1%; in assay [2], 86.8%; in assay [3], 77.5%; in assay [4], 89.3%; in assay [5], 50.1%; in assay [6], 74.2%.
With `Cc1cc(C)nc(Nc2ccc(Nc3nc4ccccc4c(N4CCC(NC(C)(C)C)CC4)c3C#N)cc2)n1` [Compound 3276CN, 2-{4-[(4,6-dimethylpyrimidin-2-yl)amino]phenylamino}-3-cyano-4-[4-(tert-butylamino)piperidin-1-yl]quinoline], the viability at 4 µM is 38.5% in assay [1]; 2.9% in assay [2]; 51.9% in assay [3]; 4.5% in assay [4]; 0.9% in assay [5]; 41.2% in assay [6]. In addition, the viability at 10 µM came to 0.9% in assay [1]; 1% in assay [2]; 1% in assay [3]; 0.9% in assay [4]; 0.9% in assay [5]; 1% in assay [6]. Besides, the EC50 in assay [1], in assay [2], in assay [3], in assay [4], in assay [5] and in assay [6] was 0.5 to 5 µM throughout.
With `Cc1ccc(OC2CCCN(c3c(C#N)c(NCc4ccc(Cl)cc4)nc4ccccc34)C2)cc1` (stereo not shown) [Compound 3234CN, 2-(4-chlorobenzylamino)-3-cyano-4-[3-(4-methylphenoxy)piperidin-1-yl]quinoline], the viability at 4 µM in assay [1] was found to be 89.8%; in assay [2] it was 107%; in assay [3], 94.4%; in assay [4] it was 89.8%; in assay [5] it was 93.8%; in assay [6] it was 99.2%. Further, the viability at 10 µM in assay [2] worked out at 102%; in assay [3] it was 92%; in assay [4], 80.5%; in assay [5], 90.7%; in assay [6] it was 95.5%.
Take `N#Cc1c(NCc2ccc(Cl)cc2)nc2ccccc2c1N1CCCC(Oc2ccccc2)C1` (stereo not shown) [Compound 3206CN, 2-(4-chlorobenzylamino)-3-cyano-4-(3-phenoxypiperidin-1-yl)quinoline]: the viability at 4 µM turned out to be 72.4% in assay [1]; 111% in assay [2]; 96% in assay [3]; 79.9% in assay [4]; 97.9% in assay [5]; 107% in assay [6]. Further, the viability at 10 µM worked out at 65% in assay [1]; 104% in assay [2]; 107% in assay [3]; 75.1% in assay [4]; 91.2% in assay [5]; 95.1% in assay [6].
`CC(C)(C)NC1CCN(c2c(F)c(NCc3ccc(Cl)cc3)nc3ccccc23)CC1` [Compound 348, 2-(4-chlorobenzylamino)-3-fluoro-4-[4-(tert-butylamino)piperidin-1-yl]quinoline Hydrochloride Salt]: the EC50 in assay [1] fell in the range of 0.5 to 5 µM; in assay [2], 0.5 to 5 µM; in assay [3], 0.5 to 5 µM; in assay [4] it was 0.5 to 5 µM; in assay [5], 0.5 to 5 µM; in assay [6], 5 to 10 µM.
In the case of `Cc1nccnc1OC1CCN(c2c(C#N)c(NCc3ccc(Cl)cc3)nc3ccccc23)CC1` [Compound 2970CN, 2-(4-chlorobenzylamino)-3-cyano-4-{4-[(3-methylpyrazin-2-yl)oxy]piperidin-1-yl}quinoline], the viability at 4 µM in assay [1] stood at 87.8%; in assay [2], 91.9%; in assay [3], 92%; in assay [4] it was 89.4%; in assay [5], 70.5%; in assay [6], 63.7%. Moreover, the viability at 10 µM in assay [1] is 63.3%; in assay [2], 80.8%; in assay [3], 61.2%; in assay [4] it was 79.8%; in assay [5] it was 47%; in assay [6], 53.4%.
Turning to `Cc1ccc(Nc2nc3ccccc3c(N3CCC(NC(C)(C)C)CC3)c2C#N)cc1Nc1nccc(C(F)(F)F)n1` [Compound 538CN, 2-[3-(4-trifluoromethylpyrimidin-2-ylamino)-4-methyl-phenylamino]-3-cyano-4-(4-tert-butylaminopiperidin-1-yl)-quinoline], the EC50 in assay [1] fell in the range of 0.5 to 5 µM; in assay [2] it was 0.5 to 5 µM; in assay [3] it was 5 to 10 µM; in assay [4], 5 to 10 µM; in assay [5] it was 0.5 to 5 µM; in assay [6], 5 to 10 µM.
For `COc1ccc(OC2CCN(c3c(C#N)c(NCc4ccc(Cl)cc4)nc4ccccc34)CC2)cc1` [Compound 3224CN, 2-(4-chlorobenzylamino)-3-cyano-4-[4-(4-methoxyphenoxy)piperidin-1-yl]quinoline], the viability at 4 µM in assay [1] came out at 91.6%; in assay [2], 96%; in assay [3], 112%; in assay [4] it was 96.3%; in assay [5], 89.8%; in assay [6], 116%. The viability at 10 µM amounted to 70% in assay [1]; 91.7% in assay [2]; 94.6% in assay [3]; 88.9% in assay [4]; 65.1% in assay [5]; 90% in assay [6].
Turning to `Cc1cc(C)nc(Nc2ccc(Nc3nc4ccccc4c(N4CCC(NC(C)(C)C)CC4)c3C#N)cc2C)n1` [Compound 502CN, 2-[4-(4,6-dimethyl-2-pyrimidinamino)-3-methyl-phenylamino]-3-cyano-4-(4-tert-butylaminopiperidin-1-yl)-quinoline], the EC50 in assay [1] lay in the range of 0.5 to 5 µM; in assay [2], 0.5 to 5 µM; in assay [3], 5 to 10 µM; in assay [4], 0.5 to 5 µM; in assay [5], 0.5 to 5 µM; in assay [6], 5 to 10 µM.
